Results as given in patent US11603387B2, “SOCS mimetics for the treatment of diseases” (UNIVERSITY OF FLORIDA RESEARCH FOUNDATION, INC., priority 2014, dated 2023).

Tests used:
[1] = test system: SOCS1+/+ or SOCS1+/− CD4+CD25− T cells; assay: CD4+ T cell proliferation (CFSE labeling, cell counts, 3H thymidine incorporation); format: cell-based, mouse; conditions: αCD3 + SOCS1-KIR peptide (20 μM), 72 h
Protocol: (§1) FIGS. 5A-5D. […] (FIGS. 5A and 5B) SOCS1^+/+ or SOCS1^+/− CD4^+CD25^− T cells were stimulated with αCD3 antibodies alone or with αCD3+SOCS1-KIR peptide (20 μM) for 72 h. (FIG. 5A) CD25 expressing cells were assessed by flow cytometry. Results are representative of 4 independent experiments. (FIG. 5B) Proliferation was assessed by CFSE labeling and flow cytometry, cell counts, and ^3[H] thymidine incorporation. n=4. (FIGS. 5C and 5D) SOCS1^+/+ or SOCS1^+/− CD4^+CD25^− T cells were placed under Th17 inducing conditions in the absence or presence of SOCS1-KIR peptide (20 μM) (FIG. 5C) IFNγ expression, relative to β-actin., was assessed by qPCR (left) and ELISA (right) (n=4). (FIG. 5D) pSTAT1 and STAT1 protein expressions were assessed by western blotting. Results are representative of 4 independent experiments. Statistical comparisons were performed using Mann-Whitney U test. (*P<0.05). iTh17=Th17 inducing conditions, WT=SOCS1^+/+, and HT=SOCS1^+/−.
CD4^+ T cell proliferation was assessed by CFSE staining, ^3H thymidine incorporation, and absolute cell counts. MACS purified CD4^+CD25^− T cells, isolated from LN and spleen suspension, were stimulated in triplicate (96 well round-bottom plate; 1×10^5 cells/well) with 10 μg/ml anti-CD3 (BD Pharmingen; clone: 145.2C11) alone or in addition to 1.5 μg/ml anti-CD28 (BD Pharmingen; clone 37.51) at 37° C. (5% CO2) in RPMI 1640 (Cellgro; 10-040-CV) containing 10% FBS (INVITROGEN™ GIBCO®), 1% antibiotic/antimycotic (Herndon, Va.), and 50 μM β-ME (MP Biomedicals, Solon, Ohio). After 72 h of incubation, cell cultures were either pulsed with 0.5 mCi ^3H thymidine (GE Healthcare; Arlington Heights, Ill.) or counted and harvested for assessment by flow cytometry. In cultures analyzed by flow cytometry, T lymphocytes were labeled with 10 μg/ml CFSE prior to culture as previously described (Cozzo et al. 2003). ^3H thymidine pulsed T lymphocytes were harvested 16-18 hours after initial pulse followed by the ^3H thymidine incorporation assessment using a Beckman LS3801 Liquid Scintillation System. […]

SOCS1−/− mice = assay: Lethal perinatal auto-inflammatory disease in SOCS1−/− mice; format: in vivo, mouse; conditions: peptide combined with CD4 T cells
Excerpt: FIGS. 15A-15F. SOCS1-KIR inhibition of lethal inflammatory pathology in SOCS1−/− mice is correlated to enhanced regulatory T cell homeostasis. (FIG. 15A) Kaplan Meier curve showing survival of SOCS1^−/− (black square; n=7) or CD4^+/SOCS1-KIR treatment (purple triangles, n=12). Numbers of mice in each group are indicated in parentheses. Mice were euthanized when moribund with survival comparisons by Mantel-Cox. Statistical significance denoted by asterisks. (FIG. 15B) Photographs of H & E stains depicting heart and liver tissues of 2 week old SOCS1^−/−, SOCS1^−/− mice receiving dual treatments, or littermate control mice. Photographs shown of H & E stained liver and heart of untreated SOCS1^−/− (N=8) and WT (N=7) mice are representative of 100% of samples analyzed. Photographs shown of H & E stained liver and heart of SOCS1^−/− mice receiving combined treatments are representative of 2 out of 5 mice in regard to heart samples and 1 out of 5 mice in regards to liver tissue. (FIG. 15C) Graph showing average daily weights of SOCS1^−/− mice untreated (n=16), CD4^+/SOCS1-KIR treatment (n=12), or WT littermate controls (n=9) over a two week period. (FIG. 15D) Photographs of 2 week old SOCS1^−/− mice, SOCS1^−/− mice receiving dual treatment, and WT littermate controls. (FIG. 15E) Graphs showing IFNg levels within the sera of 2 week old WT (n=7) or SOCS1^−/− mice with (n=8) and without (n=10) CD4^+/SOCS1-KIR treatment, measured by ELISA. (FIG. 15F) Graphs showing absolute numbers of CD4^+Foxp3^+ lymphocytes present in two week old SOCS1^−/− and WT littermate control mice with or without CD4^+/SOCS1-KIR treatment and WT 6-8 week old adult mice. Each dot is representative of an individual mouse with averages denoted by lines. Statistics were performed using unpaired, two-tailed t test comparing treated SOCS1^−/− to untreated SOCS1^−/− 2 wk. Statistical significance is denoted by asterisks. *, p≤0.05; **, p 0≤0.005; ***, p≤0.0005.

STAT1 = assay: pSTAT1/STAT1 western blotting under Th17 inducing conditions; format: cell-based, mouse; conditions: SOCS1+/− CD4+ T cells, SOCS1-KIR peptide (20 μM)
Protocol: as §1
MACS purified CD4^+CD25^− T cells were stimulated with anti-CD3 Ab (10 μg/ml), anti-CD3 (10 μg/ml) and anti-CD28 (1.5 μg/ml) Abs, or Th17 inducing conditions in the presence or absence of SOCS1-KIR peptide as previously described. […] Equal quantities of protein were loaded and separated in 4%-12% SDS-PAGE gel (Biorad). […]

EAE = conditions: administered in vivo; cited from earlier work
JAK2 = JAK2 (Homo sapiens, UniProt O60674); assay: Binding to the activation loop of JAK2
Sequence of JAK2 (O60674 whole entry, species assumed): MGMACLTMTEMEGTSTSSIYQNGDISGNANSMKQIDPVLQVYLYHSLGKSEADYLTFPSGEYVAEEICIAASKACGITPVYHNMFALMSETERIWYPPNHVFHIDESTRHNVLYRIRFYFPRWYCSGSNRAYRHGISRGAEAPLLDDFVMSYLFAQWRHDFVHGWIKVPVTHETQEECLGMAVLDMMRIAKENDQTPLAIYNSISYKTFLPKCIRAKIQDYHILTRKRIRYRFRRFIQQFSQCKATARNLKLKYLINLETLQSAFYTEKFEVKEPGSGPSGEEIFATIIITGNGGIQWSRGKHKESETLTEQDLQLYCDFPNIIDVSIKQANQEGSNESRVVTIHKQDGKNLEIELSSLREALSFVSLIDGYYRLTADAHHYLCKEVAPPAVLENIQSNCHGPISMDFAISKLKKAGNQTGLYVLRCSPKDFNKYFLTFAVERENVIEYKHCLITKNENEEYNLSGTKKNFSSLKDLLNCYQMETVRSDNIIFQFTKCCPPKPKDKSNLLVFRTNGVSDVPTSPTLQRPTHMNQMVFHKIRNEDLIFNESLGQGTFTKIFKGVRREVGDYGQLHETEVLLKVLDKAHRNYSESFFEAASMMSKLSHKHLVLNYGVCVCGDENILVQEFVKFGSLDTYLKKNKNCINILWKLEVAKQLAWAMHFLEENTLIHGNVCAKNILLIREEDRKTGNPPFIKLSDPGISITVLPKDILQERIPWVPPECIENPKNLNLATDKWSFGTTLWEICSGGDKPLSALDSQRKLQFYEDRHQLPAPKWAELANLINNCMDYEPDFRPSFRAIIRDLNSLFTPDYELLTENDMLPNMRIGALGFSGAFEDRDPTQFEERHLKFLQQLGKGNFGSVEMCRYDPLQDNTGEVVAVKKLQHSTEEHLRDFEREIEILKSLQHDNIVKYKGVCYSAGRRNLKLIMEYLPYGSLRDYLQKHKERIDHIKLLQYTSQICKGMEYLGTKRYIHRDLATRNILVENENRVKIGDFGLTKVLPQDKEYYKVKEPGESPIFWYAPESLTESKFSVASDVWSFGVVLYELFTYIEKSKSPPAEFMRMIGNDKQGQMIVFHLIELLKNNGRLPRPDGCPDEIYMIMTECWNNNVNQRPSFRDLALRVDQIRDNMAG

What does the source list for “DTHFRTFRSHSDYRRI (SOCS1-KIR peptide) [SOCS1 mimetic peptide corresponding to the KIR region of SOCS1]”?
Activation and proliferation of αCD3 treated SOCS1+/− CD4+ T lymphocytes relative to WT ([1]; SOCS1+/− cells): to levels comparable to WT receiving αCD3 stimulation; Proliferation by CFSE labeling ([1]; WT and SOCS1+/− T lymphocytes): reduced proliferation; Absolute cell counts and 3H thymidine incorporation [1]: inhibition of T lymphocyte proliferation; Peripheral Foxp3+CD4+ Tregs (SOCS1−/− mice; 2 week old SOCS1−/− mice): enhanced peripheral homeostasis of Foxp3+CD4+ Tregs; Leukocytic infiltration into heart and liver (SOCS1−/− mice; SOCS1−/− mice): prevent/delay leukocytic infiltration into heart and liver; Quality of life (size and overall health) (SOCS1−/− mice; SOCS1−/− mice): improve the quality of life (size and overall health improvement); Survival (SOCS1−/− mice; SOCS1−/− mice): could extend the life; STAT1 activation (phosphorylation) (STAT1): drastically reduced the enhanced STAT1 activation; Immune homeostasis and EAE prevention (EAE): could both regulate immune homeostasis and prevent EAE; Binding to and inhibition of JAK2 (JAK2): binds to and inhibits the function of JAK2
